Test results reported in patent US20260364214A1, “MULTIVALENT FIBROBLAST ACTIVATION PROTEIN LIGANDS FOR TARGETED DELIVERY APPLICATIONS” (Philochem AG, priority 2022, published 2026).

How the values were obtained:
SK-RC-52.hFAP tumors [1] = experiment: Therapeutic efficacy in dose escalation and in combination with L19-IL2; assay type: in vivo, mouse (athymic Balb/c AnNRj-Foxn1); details: 5, 15 or 30 MBq/mouse on day 7
Experimental: Prior to the therapy studies, precursors (25 nmol) were dissolved in 25 μL of milliQ water, then sodium acetate buffer (75 μL, 1 M in water) and 25, 75 or 150 MBq of ^177Lu solution were added. The mixture was heated at 90 °C for 1 minutes followed by dilution with 400 μL of PBS to afford a final volume of 500 μL (5 doses of 100 μL each). Quality control of radiosynthesis was performed using radio-HPLC.
The anti-cancer efficacy of L19-IL2 as single agent (3×0.05 mg/mouse), ^177Lu-Tri-ESV6 as single agent at different doses (5 MBq/mouse, 15 MBq/mouse, 30 MBq/mouse), ^177Lu-Tri-ESV6+L19-IL2 combination (5 MBq/mouse of ^177Lu-Tri-ESV6 followed by three injections of L19-IL2 at 0.05 mg/mouse) or saline was assessed in athymic Balb/c AnNRj-Foxn1 mice bearing SK-RC-52.hFAP tumor in the right flank. Therapy experiments started when the average volume of established tumors had reached 100-150 mm^3. Body weight of the animals and tumor volume were daily measured and recorded. Tumor dimensions were measured with an electronic caliper and tumor volume was calculated with the formula (long side, mm)×(short side, mm)×(short side, mm)×0.5. Animals were euthanized when one or more termination criterium indicated by the experimental license was reached. Prism 7 software (GraphPad Software) was used for data analysis. […]

SK-RC-52.hFAP cells = experiment: Cell efflux assay with 177Lu-labeled ligands; assay type: cell-based
Experimental: SK-RC-52.hFAP cells, were cultured using RPMI medium supplemented with 10% Fetal Bovine Serum (FBS) and 1% Antibiotic-Antimytotic. Cells were seeded in 24-well plates (200'000 cells/well, 0.5 mL/well) and incubated overnight at 37 °C, 5% CO2. Then, media was removed, cells were washed with PBS (2×0.5 mL) and incubated with a solution of ^177Lu-ESV6, ^177Lu-Bi-ESV6, ^177Lu-Tri-ESV6 or ^177Lu-FAP-2286 (10 KBq, […], 0.5 mL). After 1 h, media was removed, and cells were washed with PBS (2×0.5 mL) and incubated with fresh RPMI medium without supplements. Fractions of the culture media were measured with a gamma counter (Packard Cobra) at different time-points. Percentage of compound bound was calculated as fraction of the total activity and corrected for the ^177Lu decay, as shown in FIG. 3.

SK-RC-52.hFAP tumors [2] = experiment: Dose escalation / dose optimization for radiotherapeutic applications; assay type: in vivo, mouse (female athymic Balb/c AnNRj-Foxn1); details: 24 h
Experimental: Prior to the dose optimization study for radiotherapeutic applications, precursors (0.24 to 180 nmol) were dissolved in milliQ water and diluted with sodium acetate (1 M in water, pH=4.5). ^177Lu solution (4 MBq) were added and the mixture was heated at 90 °C for 10 minutes, followed by dilution with PBS to achieve final volume of 400 μL (4 doses of 100 μL each).
Female athymic Balb/c AnNRj-Foxn1 mice bearing subcutis SK-RC-52.hFAP tumors were injected intravenously with eight different doses of ^177Lu-Tri-ESV6-DOTAGA ranging from 3 nmol/kg to 2250 nmol/kg. The mice were sacrificed after 24 h and tumor and healthy organs were harvested and measured with a gamma counter. Since the best tumor to organ ratios are obtained with high doses ranging between 90 and 250 nmol/kg, we anticipate that the ideal dose in human patients for radiotherapeutic applications will be between 1 and 3 milligram per patient. e) Therapeutic efficacy evaluation in tumor bearing mice in dose escalation and in combination with L19-IL2

SK-RC-52.hFAP tumors [3] = experiment: Therapeutic efficacy, schedule optimization for combination with L19-IL2; assay type: in vivo, mouse (athymic Balb/c AnNRj-Foxn1); details: 5 MBq/mouse on day 7
Experimental: The anti-cancer efficacy was assessed in athymic Balb/c AnNRj-Foxn1 mice bearing SK-RC-52.hFAP tumor in the right flank. Therapy experiments started when the average volume of established tumors had reached 100-150 mm^3. Body weight of the animals and tumor volume were daily measured and recorded. Tumor dimensions were measured with an electronic caliper and tumor volume was calculated with the formula (long side, mm)×(short side, mm)×(short side, mm)×0.5. Animals were euthanized when one or more termination criterium indicated by the experimental license was reached. Prism 7 software (GraphPad Software) was used for data analysis. Different groups were treated with (i) L19-IL2 as single agent at a dose of 0.05 mg/mouse on day 8,10 and 12, (ii) ^177Lu-Tri-ESV6 as single agent at a dose of 5 MBq/mouse on day 7 (iii) ^177Lu-Tri-ESV6+L19-IL2 combination (^177Lu-Tri-ESV6 at a dose of 5 MBq/mouse on day 7 followed by three administrations of L19-IL2 at a dose 0.05 mg/mouse on day 8, 10 and 12—SCHEDULE 1—, or by three administrations of L19-IL2 at a dose 0.05 mg/mouse on day 12, 17 and 22—SCHEDULE 2—, or by a single administration of L19-IL2 at a dose 0.05 mg/mouse on day 8—SCHEDULE 3—, or by a single administration of L19-IL2 at a dose 0.05 mg/mouse on day 12—SCHEDULE 4—or (iv) saline […].

SMILES: N#CC1CC(F)(F)CN1C(=O)CNC(=O)c1ccnc2c(NC(=O)CCC(=O)NCCNC(=O)CCOCC(COCCC(=O)NCCNC(=O)CCC(=O)Nc3cccc4c(C(=O)NCC(=O)N5CC(F)(F)CC5C#N)ccnc34)(COCCC(=O)NCCNC(=O)CCC(=O)Nc3cccc4c(C(=O)NCC(=O)N5CC(F)(F)CC5C#N)ccnc34)NC(=O)CCC(C(=O)O)N3CCN(CC(=O)[O-])CCN(CC(=O)[O-])CCN(CC(=O)[O-])CC3)cccc12.[177Lu+3] (centres unmarked) [^177Lu-Tri-ESV6-DOTAGA]
- therapeutic activity, in words (SK-RC-52.hFAP tumors [1]): dose-dependent therapeutic activity
- residence time / efflux, in words (SK-RC-52.hFAP cells): longer residence time in FAP-positive tumor cells, followed by ^177Lu-Bi-ESV6, ^177Lu-ESV6 and ^177Lu-FAP2286
- % ID/g in tumor, in words (SK-RC-52.hFAP tumors [2]; highest doses (>90 nmol/kg)): drops
- uptake in healthy organs, in words (SK-RC-52.hFAP tumors [2]; lowest doses (<10 nmol/kg)): partially uptaken in healthy organs
- therapeutic activity, in words (SK-RC-52.hFAP tumors [3]): dose-dependent therapeutic activity
